Data taken from US9018249B2, “SGLT inhibitors” (Panacea Biotec Limited, priority 2011, dated 2015).

Legend:
[1] = biological target: T1, mouse SGLT-2 (Mus musculus, UniProt Q923I7); assay: Methyl-α-D-[U-14C]glucopyranoside uptake assay for SGLT-2 in CHO-K1 cells; type: cell-based; settings: CHO-K1 cells expressing mSGLT-2, read-out: % inhibition of Methyl-α-D-[U-^14C] Glucopyranoside uptake (CHO-K1 cells) mediated by SGLT-2; for inhibition at 0.001 µM: 1 nM; for inhibition at 0.01 µM: 10 nM; for inhibition at 0.1 µM: 100 nM
T1 construct: Full-length mouse SGLT-2 cDNA was amplified from C57BL/6J mouse kidneys and introduced in the pcDNA3.1(+) expression vector; expressed in transfected cells; host or cells: CHO-K1 cells (American Type Culture Collection), stably transfected, G418-selected
T1 sequence (Q923I7 1-670): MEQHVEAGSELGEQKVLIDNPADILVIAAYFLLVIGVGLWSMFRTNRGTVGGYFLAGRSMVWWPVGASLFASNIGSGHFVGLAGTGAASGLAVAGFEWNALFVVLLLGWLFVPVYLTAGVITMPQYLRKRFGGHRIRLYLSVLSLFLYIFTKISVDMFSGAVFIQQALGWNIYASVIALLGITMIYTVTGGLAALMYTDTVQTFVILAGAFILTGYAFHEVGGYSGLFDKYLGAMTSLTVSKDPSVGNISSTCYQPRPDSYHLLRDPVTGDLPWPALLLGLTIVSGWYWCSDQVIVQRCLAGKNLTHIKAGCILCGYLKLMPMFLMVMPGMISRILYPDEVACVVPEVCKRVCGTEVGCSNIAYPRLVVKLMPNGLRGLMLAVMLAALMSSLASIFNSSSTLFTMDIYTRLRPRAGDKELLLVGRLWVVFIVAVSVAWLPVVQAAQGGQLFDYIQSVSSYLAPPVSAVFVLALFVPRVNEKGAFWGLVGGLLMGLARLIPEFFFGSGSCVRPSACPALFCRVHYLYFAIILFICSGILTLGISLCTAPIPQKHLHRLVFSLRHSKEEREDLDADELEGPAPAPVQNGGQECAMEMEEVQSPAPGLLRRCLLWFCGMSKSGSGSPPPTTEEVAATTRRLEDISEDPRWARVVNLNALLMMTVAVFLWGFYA
Protocol: Preparation of Mouse SGLT-2 Expressing Cells
Full-length mouse SGLT-2 cDNA was amplified from C57BL/6J mouse kidneys and introduced in the pcDNA3.1(+) expression vector (Invitrogen, Inc.) and propagated in Escherichia coli strain DH5α using LuriaBertani (LB) medium containing ampicillin. […] Stably transfected cells were selected using G418 antibiotic selection pressure.
Methyl-α-D-[U-^14C]Glucopyranoside Uptake Assay for SGLT-2
(§1) Cells expressing mSGLT-2 were seeded on 96-well tissue culture plates (Greiner, Inc.) in RPMI containing 10% FBS and 400 μg/mL G418 (0.8×10^5 cells per well in 200 μL medium) and incubated at 37° C. under 5% carbon dioxide for 24 h prior to the assay. Cells were washed twice with 200 μL of either sodium buffer (140 mM NaCl, 4.7 mM KCl, 2.2 mM CaCl2, 1.2 mM MgCl2, 10 mM Tris/Hepes, pH 7.4) or sodium-free buffer (137 mM N-methyl-glucamine, 4.7 mM KCl, 2.2 mM CaCl2, 1.2 mM MgCl2, 10 mM Tris/Hepes, pH 7.4). Reaction mixture containing test compounds at different concentrations diluted in assay buffer, 0.1 mM unlabeled Methyl-α-D-glucopyranoside and 1 μCi/well methyl-α-D-[U-^14C]glucopyranoside (American Radiochemicals) was added per well of a 96-well plate and incubated at 37° C. for 1 h. Cells were washed thrice with 200 μL of wash buffer (140 mM NaCl, 4.7 mM KCl, 2.2 mM CaCl2, 1.2 mM MgCl2, 10 mM Tris/Hepes, pH 7.4 containing 500 μM phlorizin) and lysed using 50 μL of 0.25N NaOH. Methyl-α-D-[U-^14C]glucopyranoside uptake was quantitated using a Top count scintillation counter (PerkinElmer, Inc.). All the test compounds were assayed in triplicates.

[2] = biological target: T2, human SGLT-1 (Homo sapiens, UniProt P13866); assay: Methyl-α-D-[U-14C]glucopyranoside uptake assay for SGLT-1 in CHO-K1 cells; type: cell-based; settings: CHO-K1 cells expressing hSGLT-1; for inhibition at 0.1 µM / inhibition at 1 µM / inhibition at 10 µM: read-out: % inhibition of Methyl-α-D-[U-^14C] Glucopyranoside uptake (CHO-K1 cells) mediated by SGLT-1
T2 construct: Full-length human SGLT-1 cDNA in the pCMV-XL-Neo expression vector was obtained from Origene Corporation; host or cells: CHO-K1 cells (American Type Culture Collection), stably transfected, G418-selected
T2 sequence (P13866 1-664): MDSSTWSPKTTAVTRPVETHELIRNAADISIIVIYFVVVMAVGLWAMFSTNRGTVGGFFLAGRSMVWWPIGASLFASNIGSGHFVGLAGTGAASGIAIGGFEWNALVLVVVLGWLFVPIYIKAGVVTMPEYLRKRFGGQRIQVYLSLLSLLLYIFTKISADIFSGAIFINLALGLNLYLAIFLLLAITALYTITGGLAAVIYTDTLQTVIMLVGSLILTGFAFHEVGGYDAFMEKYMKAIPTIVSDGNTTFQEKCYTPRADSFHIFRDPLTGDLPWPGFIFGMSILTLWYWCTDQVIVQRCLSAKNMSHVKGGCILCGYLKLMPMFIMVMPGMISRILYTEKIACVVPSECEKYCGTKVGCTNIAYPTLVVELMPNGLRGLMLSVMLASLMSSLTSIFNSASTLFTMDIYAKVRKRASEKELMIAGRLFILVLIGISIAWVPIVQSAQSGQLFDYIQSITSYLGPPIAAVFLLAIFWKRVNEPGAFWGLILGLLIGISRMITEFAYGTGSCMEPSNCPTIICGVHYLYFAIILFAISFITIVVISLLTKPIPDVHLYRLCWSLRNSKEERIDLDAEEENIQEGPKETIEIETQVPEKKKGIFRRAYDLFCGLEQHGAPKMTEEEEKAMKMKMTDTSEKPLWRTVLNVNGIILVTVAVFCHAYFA
Protocol: Preparation of Human SGLT-1 Expressing Cells
Full-length human SGLT-1 cDNA in the pCMV-XL-Neo expression vector was obtained from Origene Corporation and propagated in Escherichia coli strain DH5α using Luria-Bertani (LB) medium containing ampicillin. […] Stably transfected cells were selected using G418 antibiotic selection pressure.
Methyl-α-D-[U-^14C]Glucopyranoside Uptake Assay for SGLT-1
as §1, with “hSGLT-1” for “mSGLT-2”, “800 μg/ml” for “400 μg/mL”, “compounds” for “compounds at different concentrations”, “1” for “0.1”, “Methyl-α-D[U-^14C]glucopyranoside” for “Methyl-α-D-[U-^14C]glucopyranoside”

[3] = test system: C57BL/6J mice; assay: Estimation of urinary glucose in C57BL/6J mice; type: in vivo, mouse; settings: urine collected over 24 h
Protocol: Estimation of Urinary Glucose in C57BL/6J Mice
C57BL/6J mice were fasted 4 h before drug treatment. Fasted mice were weighed and randomized into different groups based on their body weight (n=6). At time T0 test compounds and standard compounds suspended in 0.25% CMC or PEG 400 formulation, were administered to respective groups and kept in metabolic cages (6 mice/cage) after dosing. Animals were fed after drug administration and urine was collected over a period of 24 h. Urinary volume was measured and urinary glucose was estimated using Merckotest Glucose Reagent (Merck Specialties Pvt. Ltd., India).

| inhibition at 0.001 µM [1] | inhibition at 0.01 µM [1] | inhibition at 0.1 µM [1] | inhibition at 0.1 µM ([2]; 100 nM) | inhibition at 1 µM [2] | inhibition at 10 µM [2] | % inhibition of Methyl-α-D-[U-^14C] Glucopyranoside uptake (CHO-K1 cells) mediated by SGLT-1 ([2]; 100 nM) | SMILES | UGE in mice (in mg/g of feed consumed) at 3 mpk [3] |
| --- | --- | --- | --- | --- | --- | --- | --- | --- |
| < 0% | 20.1% | 50.8% | 25.7% | 53.7% | 68.2% | – | CCON=CCOc1ccc(Cc2cc([C@]34OC[C@](CO)(O3)[C@@H](O)[C@H](O)[C@H]4O)ccc2Cl)cc1 [Compound 11] | 56.1 mg/g of feed consumed |
| 40.2% | 37.9% | 77.2% | – | 70% | 92.9% | N.E. | CON=CCCOc1ccc(Cc2cc(C3O[C@H](OC)[C@@H](O)[C@H](O)[C@H]3O)ccc2Cl)cc1 (stereo partly shown) [Compound 29] | – |
| 35.6% | 37.3% | 54% | 24% | 26.4% | 77.9% | – | CON=C(C)COc1ccc(Cc2cc(C3O[C@H](OC)[C@@H](O)[C@H](O)[C@H]3O)ccc2Cl)cc1 (stereo partly shown) [Compound 30] | – |
